In US10857247B2, “Compounds and compositions for the detection and treatment of Alzheimer's disease and related disorders” (The General Hospital Corporation, priority 2008, dated 2020):
Where two headings read alike, the source gives them in different places.

Legend:
brain amyloid deposits = conditions: APP23 transgenic mice, 180 min after iv injection; cited from earlier work
[1] = normal mice, iv, cited from earlier work
[2] = Biodistribution of [18F]fluoro-RS 86 in rats; assay type: in vivo
Procedure: As described above, 2-(2-methanesulfonylethyl)-8-methyl-2,8-diazaspiro[4,5]decane-1,3-dione was prepared in five steps. The RS-86 mesylate (2 mg) in acetonitrile (0.1 mL) was added to a sealed vial containing dried K^18F/kryptofix and heated at 120° C. for 10 min. The mixture was diluted with water (0.2 mL) and purified by HPLC (C-18 column 250×10 mm, flow 6 mL/min, PBS/acetonitrile (95:5). The fraction containing [^18F]fluoro-RS 86 was evaporated to dryness and the activity dissolved in PBS before filtering. Biodistribution was performed in rats at 5, 30 and 60 min.

[3] = cited from earlier work

In the case of CNc1ccc(C=Cc2nc3ccc(OCCF)cc3o2)cc1 [BF-168, 6-(2-fluoroethoxy)-2-[2-(4-methylaminophenyl)ethenyl]-benzoxazole], the “Labeling in autoradiograms of brain sections” value (brain amyloid deposits) is listed as “selective labeling of brain amyloid deposits with little non-specific binding”, the Initial brain uptake ([1]; at 2 min after injection) is listed as 3.9 % injected dose/gm and the “Clearance t1/2” value ([1]; clearance from brain) is listed as 24.7 min.
In the case of O=C1CC2(CCNCC2)C(=O)N1CC[18F] [[^18F]fluoro-RS 86, [F-18]-N-2-fluoroethyl-2,8-diazaspiro[4,5]decane-1,3-dione], the Brain uptake ([2]; 5 min) was 0.27, the Brain uptake ([2]; 30 min) was 0.54 and the Brain uptake ([2]; 60 min) was 0.48. It also gave a Blood uptake ([2]; at 30 min) of 0.3%, a Liver uptake ([2]; at 30 min) of 0.64% and a Stomach uptake ([2]; at 30 min) of 0.90%. For the same molecule, the “Uptake in the kidneys (greatest uptake)” value ([2]; at 30 min) was 2.5%, the “Defluorination (uptake in bone)” value ([2]; bone at 30 min) was 0.42% and the Brain uptake ([2]; restated in comparison with [11C]RS-86) was 0.54%.
In the case of CCN1C(=O)CC2(CCN([11CH3])CC2)C1=O [[^11C]RS-86], the Brain uptake ([3]; comparison value for the C-11 labeled analog) is listed as 1% and the Initial brain uptake ([3]; rats, biodistribution as a function of time) is listed as “about 1.1%”.
